The subject of assay [1] is P388 murine leukemia cells. Put plainly: In vitro cell-based cytotoxicity, parental P388 cells. The conditions noted are these: Mus musculus, 72 h, median cytotoxic concentration, 3 days continuous exposure. The essentials: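 P388 cells plated at 8,000 cells/well, compounds serially diluted 24 h later and incubated 72 h at 37° C. Viability by MTS (333 μg/ml final) with phenazine methosulfate (25 μM final), absorbance at 492 nm; IC50 is concentration reducing absorbance to 50% of untreated control.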

The subject of assay [2] is P388/CPT45 cells. Put plainly: Cytotoxicity in camptothecin-resistant P388/CPT45 cells relative to parental P388 (selectivity index R/S). The note with it: IC50 P388/CPT45 cells divided by IC50 parental P388 cells. In kind it is cell-based, murine. In a few lines: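 Murine P388 leukemia cells and their camptothecin-resistant P388/CPT45 subline were plated at 8,000 cells/well and exposed to serial compound dilutions for 72 h at 37 °C. Viability was read by MTS/PMS reduction at 492 nm, with IC50 taken against untreated cells. R/S is the P388/CPT45 IC50 divided by the parental P388 IC50.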

Each structure is given as a SMILES string.

Take `O=C1NC(=O)c2c1c1c3cc(F)c(F)cc3sc1c1c2c2cc(F)c(F)cc2n1[C@@H]1O[C@H](CF)C[C@H](O)[C@H]1O` [Example 9, 12-[4,6-Dideoxy-6-fluoro-β-D-glucopyranosyl]-2,3,9,10-tetrafluoro-5H, 13H-benzo[b]thienyl[2,3-a]pyrrolo[3,4-c]carbazole-5,7(6H)-dione]: the 50% inhibitory concentration (IC50) in assay [1] came to 35 nM. In addition, the “Selectivity Index R/S” value in assay [2] amounted to 120.2.

On to `O=C1NC(=O)c2c1c1c3cc(F)ccc3[nH]c1c1c2c2cc(F)ccc2n1[C@@H]1O[C@H](CO)[C@@H](F)[C@H](O)[C@H]1O` [Example 24, 12-[4-Deoxy-4-fluoro-β-D-glucopyranosyl]-3,9-difluoro-12,13-dihydro-5H-indolo[2,3-a]pyrrolo[3,4-c]carbazole-5,7(6H)-dione], for which, in assay [1], the IC50 is 2 nM. Further, in assay [2], the “Selectivity Index R/S” value amounted to 379.0.

As for `O=C1NC(=O)c2c1c1c3cc(F)c(F)cc3sc1c1c2c2cc(F)c(F)cc2n1[C@@H]1O[C@H](CF)[C@@H](F)[C@H](O)[C@H]1O` [Example 26, 12-[4,6-Difluoro-4,6-dideoxy-β-D-glucopyranosyl]-2,3,9,10-tetrafluoro-5H, 13H-benzo[b]thienyl[2,3-a]pyrrolo[3,4-c]carbazole-5,7(6H)-dione], the IC50 in assay [1] turned out to be 11 nM. Moreover, the “Selectivity Index R/S” value in assay [2] is given as 387.8.

With `O=C1NC(=O)c2c1c1c3cc(F)ccc3[nH]c1c1c2c2cc(F)ccc2n1[C@@H]1O[C@H](CF)[C@@H](F)[C@H](O)[C@H]1O` [Example 27], the IC50 in assay [1] stood at 4 nM. In assay [2], the “Selectivity Index R/S” value is reported as 448.4.

For the compound `O=C1NC(=O)c2c1c1c3cc(F)c(F)cc3sc1c1c2c2cc(F)c(F)cc2n1[C@@H]1O[C@H](CO)[C@@H](F)[C@H](O)[C@H]1O` [Example 33, 12-[4-Deoxy-4-fluoro-β-D-glucopyranosyl]-2,3,9,10-tetrafluoro-5H,13H-benzo[b]thienyl[2,3-a]pyrrolo[3,4-c]carbazole-5,7(6H)-dione], the IC50 in assay [1] was less than 3 nM. In addition, the “Selectivity Index R/S” value in assay [2] was more than 1657.6.

For the origin of these results see patent US20030083271A1, “Topoisomerase I selective cytotoxic sugar derivatives of indolopyrrolocarbazoles” (priority 2001, published 2003).
